Measurements from patent publication US8017649B2, “Flavonoid compounds and uses thereof” (Howard Florey Institute of Experimental Physiology and …, priority 2005, dated 2011).
“Also recorded” adds a separate entry of the source.

Experiments:
[1] = test system: anaesthetised sheep; assay: Myocardial ischaemia and reperfusion injury in anaesthetised sheep; type: in vivo; settings: for infarct size normalized to the area at risk (IS/AR): lower dose: DiOHF3HA 2.7 mg/kg, DiOHF 2 mg/kg i.v.; for effect on infarct size / cardioprotection: i.v. in aqueous solution after 30 min of ischaemia
Method: The ability of the synthetic flavonol, 3′,4′ dihydroxy flavonol adipate (DiOHF3HA) to prevent myocardial ischaemia and reperfusion injury in anaesthetised Sheep was assessed.
Five groups of anaesthetised adult merino sheep (35-45 kg wethers) were examined:
Anaesthesia was induced by intravenous thiopentone sodium (15 mg/kg) and following tracheal intubation was maintained by isoflurane (1.5-2%). A catheter was inserted in the right facial artery for arterial blood sampling and monitoring arterial pressure. Intravenous infusions were made via a catheter inserted into the jugular vein. The heart was exposed through a left thoracotomy performed at the fourth intercostal space. A 4F catheter-tipped manometer was inserted through the left atrium into the left ventricle to measure left ventricular pressure (LVP). An additional silastic cannula was inserted into the left atrial appendage for the injection of lignocaine and for infusion of Evans Blue. The left anterior descending coronary artery (LAD) was dissected from the epicardium immediately distal to its second diagonal branch, and a transit-time 2 mm flow probe was placed around it to monitor the LAD blood flow. A silk suture was passed under the LAD proximal to the probe and both ends of the silk were threaded through a plastic tube to form a vascular snare.
The animals were allowed to stabilise for 10-15 minutes after the completion of the surgical procedure. Sheep were then randomly divided into different treatment groups. All sheep had 30 minute baseline recording followed by 1 hour ischaemia and 3 hours reperfusion.
During the course of the experiment, haemodynamic measurements were recorded at 5 minute intervals and blood samples were taken at designated time-points. After 30 minutes of ischaemia, flavonol treatment was administered. DiOHF was dissolved in 2 ml DMSO plus 14 ml polyethylene glycol:water (1:1). DiOHF3HA was dissolved in 20 ml 0.1M Na2CO3. The drugs were given at 1 ml/min i.v. The two doses of DiOHF3HA (2.7 mg/kg and 6.6 mg/kg) were chosen to achieve equivalent molar doses to the parent DiOHF compound (at 2 mg/kg and 5 mg/kg, respectively). […] Lignocaine was used, as required, to ameliorate arrhythmias.
The area of myocardium at risk and infarct size were delineated by Evan's blue and triphenyltetrazolium chloride (TTC) staining. After 3 hours of reperfusion, the LAD was re-occluded at the original occlusion site. Immediately after intravenous injection of pentobarbitone (100 mg kg^−1) to arrest the heart, Evan's blue dye (1.5%, 40 ml) was injected into the left atrium to define the myocardium at risk. The heart was rapidly removed and the left ventricle was sliced into transverse sections about 1 cm thick. The unstained risk area was traced onto the same transparencies. The sections were then incubated in 0.1 M sodium phosphate buffer containing 1% TTC for 20 min (37° C., pH 7.4). The infarcted area was traced onto transparencies. The area of myocardium at risk, and infarct size, were measured by computerised planimetry. The former was expressed as a percentage of total left ventricular volume (AR/LV %) and infarct size was expressed as a percentage of the area of myocardium at risk (IS/AR %).
Arterial blood samples (5 ml) were collected into chilled heparinised tubes at baseline, during ischaemia and at three time points during the reperfusion period (1 hour, 2 hour and 3 hour). Following centrifugation at 4° C., plasma samples were stored at −20° C. until measurement to determine levels of lactate dehydrogenase and creatinine kinase.

[2] = test system: endothelium intact aortic rings; assay: Ca2+-induced contraction of rat aortic rings in Ca2+-free high-K+ solution; type: cell-based
Method: To determine the effect of flavonoids on responses to the influx of extracellular Ca^2+, contractile responses to exogenous application of Ca^2+ were examined in the presence of flavonoids in Ca^2+-free high-K^+ solution (60 mM, KPSS). Aortic rings were initially equilibrated at a resting tension of 1 g in normal Ca^2+-free PSS for 45 minutes. The bath medium was then replaced with Ca^2+-free KPSS for 45 minutes to determine a reference contraction to Ca^2+ (3×10^−3 M). Following a 30 minute re-equilibration period with Ca^2+-free PSS, the cumulative contractile responses to Ca^2+ (10^−5−3×10^−3 M) were determined in KPSS in the presence of a range of concentrations (10^−8-10^−4 M) of vehicle, 3′,4′-dihydroxyflavonol, 3-hydroxyflavone-3-hemiadipate, 3′,4′-dihydroxy-3-hemiadipate, 3-hydroxyflavone-3-phosphate. A 20 minute incubation period was allowed for the flavonoids before examining the responses to Ca^2+.
To determine the effect of flavonoids on responses to the influx of extracellular Ca^2+, contractile responses to exogenous application of Ca^2+ were examined in the presence of flavonoids in Ca^2+-free high-K^+ solution (60 mM, K+-PSS). Aortic rings were initially equilibrated at a resting tension of 1 g in Ca^2+-free PSS for 45 minutes. The bath medium was then replaced with Ca^2+-free K+-PSS for 45 minutes to determine a reference contraction to added Ca^2+ (3 mM). Following a 30 minute re-equilibration period with Ca^2+-free PSS, the cumulative contractile responses to Ca^2+ (10^−5−3×10^−3 M) were determined in K^+ PSS in the presence of vehicle (0.1% DMSO), or a range of concentrations (10^−7-10^−4 M) of 3′-hydroxyflavonol, F3HA, DiOHF3HA or F3P. A 20 minute incubation period was allowed for the flavonoids before examining the responses to Ca^2+. Experiments were conducted in the presence and absence of BuCHE (1000 U/L) to cleave the adipate in F3HA and DiOHF3HA. In experiments using F3P, phosphatase (1000 U/L) was used in some experiments to cleave the phosphate.

[3] = test system: endothelium-intact (EI) aortic rings; assay: PE-induced contraction of rat aortic rings; type: cell-based
Method: Rings were incubated for 20 minutes with DiOHF3HA at a range of concentrations (10^−7-10^−4 M) or vehicle (0.1% dimethyl sulphoxide, DMSO). A concentration response curve to PE (10^−9-10^−5 M) in endothelium-intact (EI) aortic rings was then performed. Experiments were conducted in the presence and absence of BuCHE (1000 U/L) to cleave the adipate in DiOHF3HA.

[4] = test system: anaesthetised sheep; assay: Myocardial ischaemia and reperfusion injury in anaesthetised sheep; type: in vivo; settings: higher dose: DiOHF3HA 6.7 mg/kg, DiOHF 5 mg/kg i.v.; 1 h ischaemia, 3 h reperfusion

SMILES | infarct size normalized to the area at risk (IS/AR) [1] [%] | Maximum Contraction (percent 3 mM Ca^2+) ([2]; 10^−4 M, without BuCHE) | effect on PE-induced contraction ([3]; alone, 0.1 mM) | infarct size normalized to the area at risk (IS/AR) [4] [%] | regression of LAD flow after reperfusion hyperperfusion ([1]; 6.6 mg/kg vs control) | haemodynamic indices (arterial pressure, HR, LV-EDP, dP/dtmax) during infusion ([1]; 20-min i.v. infusion, 6.6 mg/kg) | increase in plasma creatine kinase ([1]; after 1 hour ischaemia and 3 hours reperfusion) [U/L] | increase in plasma lactate dehydrogenase ([1]; after 1 hour ischaemia and 3 hours reperfusion, n=4) [U/L] | effect on infarct size / cardioprotection [1] | effect on infarct size / cardioprotection ([1]; listed as Adipate) | Maximum Contraction (percent 3 mM Ca^2+) ([2]; 10^−4 M + BuCHE) | effect on Ca^2+-induced contraction ([2]; alone, highest concentration 10^−4 M) | effect on Ca^2+-induced contraction ([2]; alone, over the concentration range tested) | effect on Ca^2+-induced contraction ([2]; in the presence of BuCHE or phosphatase (1000 U/L)) | effect on PE-induced contraction ([3]; in the presence of esterase (BuCHE))
O=c1c(O)c(-c2ccc(O)c(O)c2)oc2ccccc12 [DiOHF, 3′,4′-Dihydroxyflavonol, reference compound] | 73 | 18 ± 2 | inhibit the response to PE in a concentration dependent manner | 47±8 | – | – | – | – | – | – | – | – | – | – | –
O=C(O)CCCCC(=O)Oc1c(-c2ccc(O)c(O)c2)oc2ccccc2c1=O [DiOHF3HA, 3′,4′-dihydroxyflavone-3-hemiadipate] | 64 | 101 ± 1 | no effect on PE-induced contraction | 49±8 | more rapid | did not alter haemodynamic indices; also recorded: unchanged | 1579±936 | 67±32 | dose-related reduction in infarct size; also recorded: equivalent degree of cardioprotection to the parent compound | significant difference in infarct size | 35 ± 6 | slight Ca2+ inhibitory action | little effect on calcium-induced contraction | markedly enhanced the inhibitory effect; also recorded: equivalent inhibitory effect to DiOHF; also recorded: inhibit calcium-induced contraction | inhibit the response to PE in a concentration dependent manner; also recorded: marked inhibition
